According to PMC10700673, “A Smart Intracellular Self‐Assembling Bioorthogonal Raman Active Nanoprobe for Targeted Tumor Imaging” (Advanced Science, 2023):

Molecular target: T1, Recombinant human legumain (Homo sapiens, UniProt Q99538)
T1 construct: purchased R&D systems
T1 sequence (Q99538 18-433): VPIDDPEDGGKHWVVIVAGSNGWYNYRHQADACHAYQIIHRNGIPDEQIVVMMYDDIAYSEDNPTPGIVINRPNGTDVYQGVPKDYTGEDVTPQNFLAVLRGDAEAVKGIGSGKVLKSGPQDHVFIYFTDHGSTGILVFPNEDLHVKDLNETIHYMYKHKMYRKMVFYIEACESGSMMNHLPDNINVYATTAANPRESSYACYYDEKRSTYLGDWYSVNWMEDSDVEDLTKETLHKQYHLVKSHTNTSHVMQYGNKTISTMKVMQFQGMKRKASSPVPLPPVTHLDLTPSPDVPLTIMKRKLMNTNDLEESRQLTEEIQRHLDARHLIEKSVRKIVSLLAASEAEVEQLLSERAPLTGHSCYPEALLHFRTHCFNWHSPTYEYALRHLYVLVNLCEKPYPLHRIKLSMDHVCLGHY
Experiment: legumain- and GSH-triggered cleavage and condensation in solution (Raman, HPLC, MALDI)
Format: biochemical
Conditions: 37 °C
Method: The detailed synthetic procedures and characterization of the nanoSABER probe are given in Scheme S1 and Figures S1 and S2 (Supporting Information), respectively. The Raman signatures of nanoSABER (Figure 2a) display the vibrational stretching frequencies of alkyne and nitrile at 2121 and 2230 cm^−1, respectively. The ratio of alkyne/nitrile Raman peak intensity in the nanoSABER solutions was measured to be 0.21±0.04. Next, we studied the cleavage of the nanoSABER probe by legumain, leading to the formation of supramolecular self‐assembled nanoparticles. This was verified using high‐resolution matrix‐assisted laser desorption/ionization–time‐of‐flight mass spectrometry (MALDI), RS, and high‐performance liquid chromatography (HPLC). We first incubated 25 µM of nanoSABER probe with 250 µM GSH for 2 h at 37 °C. This reduced the disulfide bond of D‐cysteine, producing reduced nanoSABER, which was identified using HPLC and MALDI by the appearance of a peak at a retention time of 16.5 min (Figure 2b) and an observed mass of 1737.5 (Figure 2c). When nanoSABER was co‐incubated with 250 µM GSH and 3 µL (10 µg/50 µL) legumain enzyme for 3 h at 37 °C, the reduced nanoSABER that was generated in situ reacted with the legumain enzyme to form an active cleaved intermediate. The latter underwent intermolecular condensation to yield the alkyne‐dimer. […] Both HPLC fractions were collected and characterized by MALDI.
Figure 2 Optical and structural properties of nanoSABER (R6‐AAN‐alkyne‐nitrile) and alkyne‐dimer. a) Raman spectra of R6AAN‐alkyne and nanoSABER showing the alkyne and nitrile vibrational stretching frequency at 2121 cm^−1 and 2230 cm^−1, respectively, expressed as the mean ± standard deviation for n = 22 independent in vitro measurements. b) HPLC chromatogram of 250 µM nanoSABER (red) and 250 µM nanoSABER + 1 mM GSH incubated for 3 h (green), and 250 µM nanoSABER + 1 mM GSH + 3 µL (10 µg/50 µL) legumain incubated for 3 h (blue). c–e) HR‐MALDI‐TOF/MS spectra of reduced nanoSABER, cleaved R6‐AAN, and alkyne‐dimer. f) Raman spectra of 250 µM nanoSABER + 1 mM GSH + 3 µL (10 µg/50 µL) legumain incubated for 3 h, shown as the mean with a standard deviation of n = 22 independent in vitro measurements. g) Enzymatic conversion ratios of 250 µM nanoSABER in the presence of 1 mM GSH and 3 µL (10 µg/50 µL) legumain enzyme as a function of time, as calculated from the alkyne/nitrile Raman peak intensity ratio. h,i) TEM and DLS of alkyne‐dimer nanoparticles (red circles) after incubation of 250 µM nanoSABER + 1 mM GSH + 3 µL (10 µg/50 µL) legumain for 3 h at 37 °C. All subpanels reflect representative data from i n vitro experiments repeated three times unless stated.
To accurately evaluate the efficiency of the R6‐AAN‐alkyne‐nitrile nanoprobe, time‐dependent Raman measurements were performed (Figure 2g), where the ratio of alkyne/nitrile peak intensity was used as an indicator of the reaction progress. We found as the reaction progressed the alkyne/nitrile peak intensity increased from 0.22±0.01 to 4.4±0.12 and plateaued at a final value of 4.6±0.12 indicating almost complete conversion of nanoSABER to alkyne‐dimer within 3 h. […] To further get insight into the structural arrangements of the self‐assembled dimers, transmission electron microscopy (TEM) was performed. […]

Ac‐Arg‐Arg‐Arg‐Arg‐Arg‐Arg‐Ala‐Ala‐Asn‐Cys(StBu)‐Pra‐Lys‐CBT [nanoSABER]
cleavage and condensation by legumain (HPLC retention time and MALDI mass) (250 µM + 1 mM GSH + 3 µL (10 µg/50 µL) legumain, 3 h): efficiently cleaved by legumain
time to almost complete conversion to alkyne-dimer (250 µM nanoSABER + 1 mM GSH + 3 µL (10 µg/50 µL) legumain, from the alkyne/nitrile Raman ratio): ≤ 3 h
alkyne/nitrile peak intensity ratio, start of reaction (250 µM nanoSABER + 1 mM GSH + 3 µL (10 µg/50 µL) legumain, time-dependent Raman, initial value): 0.22±0.01
alkyne/nitrile peak intensity ratio, plateau final value (250 µM nanoSABER + 1 mM GSH + 3 µL (10 µg/50 µL) legumain, time-dependent Raman, plateau): 4.6±0.12
alkyne/nitrile peak intensity ratio, as the reaction progressed (250 µM nanoSABER + 1 mM GSH + 3 µL (10 µg/50 µL) legumain, time-dependent Raman, value reached before plateau): 4.4±0.12
